Laboratory results taken from patent US8969542B2, “HPV polyepitope constructs and uses thereof” (priority 2007, dated 2015).
Where no end group is shown, it is not given here.

What was measured:
HLA A0101 = HLA A0101 (Homo sapiens, UniProt P04439, A114D/A174V/A182V/D101N/D185E/E176A/E190D/L180R/Q94H/R68K/S129P/T187R/V100A/V91M/W191G); experiment: HLA class I competition binding assay using soluble HLA
DRB1*0101 (DR1) = DRB1*0101 (DR1) (Homo sapiens, UniProt P01903+P01911, A100R/D57E/F55L/F60I/F76Y/I96L/L162R/M171V/P40L/Q125E/R42F/V115G/Y59C); experiment: biochemical
DRB1*0301 (DR3) = DRB1*0301 (DR3) (Homo sapiens, UniProt P01903+P01911, A100K/A102G/A103R/A169T/F55Y/I96L/K41T/L162R/M171V/P40S/Q125H/Q178H/Q39Y/R42S/S66N/T106N/T262R/W38E/Y61H); experiment: biochemical
DRB1*0401 (DR4w4) = DRB1*0401 (DR4w4) (Homo sapiens, UniProt P01903+P01911, A100K/A169T/F76Y/I96L/K127E/L162R/M171V/N62H/P40V/Q125Y/R42H/S133A/S149N/S66Y/V115G/V209L/W38E); experiment: biochemical
DRB1*0405 (DR4w15) = DRB1*0405 (DR4w15) (Homo sapiens, UniProt P01903+P01911, A100R/A169T/D86S/F76Y/I96L/K127E/L162R/M171V/N62H/P40V/Q125Y/R42H/S133A/S149N/S66Y/V115G/V209L/W38E); experiment: biochemical
DRB1*0701 (DR7) = DRB1*0701 (DR7) (Homo sapiens, UniProt P01903+P01911, A100R/A102G/A103Q/D57E/D86V/E43K/F76Y/K127E/L162R/M171V/P40G/Q125H/Q99D/R33Q/R42Y/R54Q/S133A/S66F/T210M/V115G/Y107V/Y59L/Y89S); experiment: biochemical
DRB5*0101 (DR2w2beta-2) = DRB5*0101 (DR2w2beta-2) (Homo sapiens, UniProt P01903+Q30154); experiment: biochemical
DRB1*0901 = DRB1*0901 (Homo sapiens, UniProt P01903+P01911, A100R/A103E/D57H/D86V/F55Y/F60I/F76Y/I96F/K127E/L162R/M171V/P40D/Q125H/Q99R/R33Q/R42F/S133A/S66N/T210M/V115G/W38K/Y107V/Y59G/Y89S); experiment: biochemical
DRB1*0802 (DR8w2) = DRB1*0802 (DR8w2) (Homo sapiens, UniProt P01903+P01911, A100R/A103L/A169T/F76Y/H45Y/I96F/K41T/L162R/M171V/P40S/Q125H/Q178H/Q39Y/Q99D/R218S/R42G/S66Y/V115G/W38E); experiment: biochemical
HLA A2601 = HLA A2601 (Homo sapiens, UniProt P04439, A114D/A173T/A270S/D101N/D185E/E277Q/E87N/F33Y/G231S/I121R/I218V/K168Q/L180W/L300P/L318F/P208A/P217A/Q86R/Q94H/R138Q/S129P/T187R/T323A/T345S/V100A/V358M); experiment: HLA class I competition binding assay using soluble HLA
DRB1*0404 (DR4w14) = DRB1*0404 (DR4w14) (Homo sapiens, UniProt P01903+P01911, A100R/A169T/F76Y/I96L/K127E/L162R/M171V/N62H/P40V/Q125Y/R42H/S133A/S149N/S66Y/V209L/W38E); experiment: biochemical
DRB1*1101 (DR5) = DRB1*1101 (DR5) (Homo sapiens, UniProt P01903+P01911, A100R/A169T/A87E/I96F/K41T/L162R/M171V/P40S/Q125H/Q178H/Q39Y/Q99D/R42S/S66Y/T262R/V115G/W38E); experiment: biochemical
DRB4*0101 (DRw53) = DRB4*0101 (DRw53) (Homo sapiens, UniProt P01903+P13762, G164S); experiment: biochemical
HLA A3002 = HLA A3002 (Homo sapiens, UniProt P04439, D101N/D140H/D185E/E176R/F33S/G80R/H175R/K168Q/Q94H/R138E/R41S/V100E); experiment: HLA class I competition binding assay using soluble HLA
DRB1*1501 (DR2w2beta-1) = DRB1*1501 (DR2w2beta-1) (Homo sapiens, UniProt P01903+P01911); experiment: biochemical
HLA A2902 = HLA A2902 (Homo sapiens, UniProt P04439, A270S/D101N/D185E/E176V/E277Q/E87Q/F33T/G231S/H175R/I121M/I218V/I322F/K168Q/L300P/L318F/M331R/P208A/P217A/Q86L/T323A/T345S/V100A/V358M); experiment: HLA class I competition binding assay using soluble HLA

Compound: ISDYRHYCY [compound 5]
- IC50 (HLA A0101): 10 nM

Compound: NGWFYVEAVIDRQTG [compound 106]
- IC50 (DRB1*0101 (DR1)): 1860 nM
- IC50 (DRB1*0301 (DR3)): 2800 nM
- IC50 (DRB1*0401 (DR4w4)): 845 nM
- IC50 (DRB1*0405 (DR4w15)): 178 nM
- IC50 (DRB1*0701 (DR7)): 1.46 µM
- IC50 (DRB5*0101 (DR2w2beta-2)): 1200 nM
- IC50 (DRB1*0901): 3.67 µM

Compound: CC(C)C[C@H](NC(=O)[C@H](CCC(N)=O)NC(=O)[C@H](CCC(N)=O)NC(=O)[C@@H](N)Cc1ccccc1)C(=O)N[C@@H](Cc1ccccc1)C(=O)N[C@@H](CC(C)C)C(=O)N[C@@H](CC(N)=O)C(=O)N[C@H](C(=O)N[C@@H](CC(C)C)C(=O)N[C@@H](CO)C(=O)N[C@@H](Cc1ccccc1)C(=O)N[C@H](C(=O)N[C@@H](CS)C(=O)N1CCC[C@H]1C(=O)N[C@@H](Cc1c[nH]c2ccccc12)C(=O)O)C(C)C)[C@@H](C)O [compound 105]
- IC50 (DRB1*0802 (DR8w2)): 9 µM

Compound: STDLRDHIDY [compound 3]
- IC50 (HLA A0101): 113 nM
- IC50 (HLA A2601): 758 nM

Compound: DWVMAIFGVNPTVAEGF [compound 114]
- IC50 (DRB1*0301 (DR3)): 3750 nM
- IC50 (DRB1*0404 (DR4w14)): 20 nM
- IC50 (DRB1*0405 (DR4w15)): 92 nM
- IC50 (DRB1*0802 (DR8w2)): 4.27 µM
- IC50 (DRB1*1101 (DR5)): 4.96 µM
- IC50 (DRB4*0101 (DRw53)): 571 nM
- IC50 (DRB5*0101 (DR2w2beta-2)): 387 nM
- IC50 (DRB1*0901): 17.9 µM

Compound: CC[C@H](C)[C@H](NC(=O)CNC(=O)[C@@H](NC(=O)[C@H](CCCCN)NC(=O)[C@H](Cc1ccc(O)cc1)NC(=O)[C@H](Cc1c[nH]c2ccccc12)NC(=O)[C@H](Cc1ccc(O)cc1)NC(=O)[C@@H](N)CC(C)C)[C@@H](C)O)C(=O)N[C@@H](CO)C(=O)N[C@@H](CC(N)=O)C(=O)N[C@H](C(=O)N[C@@H](CO)C(=O)N[C@@H](CCC(=O)O)C(=O)N[C@H](C(=O)N[C@@H](Cc1ccc(O)cc1)C(=O)O)C(C)C)[C@@H](C)CC [compound 89]
- IC50 (DRB1*0901): 0.09 µM

Compound: QVDYYGLYY [compound 2]
- IC50 (HLA A0101): 2.7 nM
- IC50 (HLA A2601): 251 nM
- IC50 (HLA A3002): 160 nM

Compound: CC[C@H](C)[C@H](N)C(=O)N[C@@H](CCCNC(=N)N)C(=O)N[C@H](C(=O)N[C@@H](CC(C)C)C(=O)N[C@@H](CCC(N)=O)C(=O)N[C@@H](CCC(=O)O)C(=O)N[C@@H](CC(C)C)C(=O)N[C@@H](CC(C)C)C(=O)N[C@@H](CCSC)C(=O)NCC(=O)N[C@@H](CO)C(=O)N[C@@H](Cc1ccccc1)C(=O)NCC(=O)N[C@H](C(=O)N[C@H](C(=O)O)C(C)C)[C@@H](C)CC)[C@@H](C)CC [compound 112]
- IC50 (DRB1*0101 (DR1)): 50 nM

Compound: WKHIRLECVLMYKAR [compound 108]
- IC50 (DRB1*0301 (DR3)): 146 nM
- IC50 (DRB1*0401 (DR4w4)): 263 nM
- IC50 (DRB1*0405 (DR4w15)): 71 nM
- IC50 (DRB1*0701 (DR7)): 16.4 µM
- IC50 (DRB1*0802 (DR8w2)): 0.476 µM
- IC50 (DRB1*1101 (DR5)): 0.081 µM
- IC50 (DRB1*1501 (DR2w2beta-1)): 134 nM
- IC50 (DRB4*0101 (DRw53)): 102 nM
- IC50 (DRB5*0101 (DR2w2beta-2)): 412 nM
- IC50 (DRB1*0901): 11.8 µM

Compound: C[C@@H](O)[C@H](NC(=O)CN)C(=O)NCC(=O)N[C@@H](CS)C(=O)N[C@@H](CC(N)=O)C(=O)NCC(=O)N[C@@H](Cc1c[nH]c2ccccc12)C(=O)N[C@@H](Cc1ccccc1)C(=O)N[C@@H](Cc1ccc(O)cc1)C(=O)O [compound 23]
- IC50 (HLA A0101): 136 nM
- IC50 (HLA A2601): 3080 nM
- IC50 (HLA A2902): 116 nM
- IC50 (HLA A3002): 9.1 nM

Compound: CC[C@H](C)[C@H](NC(=O)[C@H](Cc1c[nH]cn1)NC(=O)[C@H](C)NC(=O)[C@H](Cc1ccc(O)cc1)NC(=O)[C@H](CC(C)C)NC(=O)[C@@H](NC(=O)[C@H](Cc1ccccc1)NC(=O)[C@@H]1CCCN1C(=O)[C@H](CCC(N)=O)NC(=O)[C@@H](NC(=O)[C@H](CC(C)C)NC(=O)[C@@H](NC(=O)[C@H](CCCCN)NC(=O)[C@@H](N)Cc1ccccc1)[C@@H](C)O)[C@@H](C)CC)[C@@H](C)CC)C(=O)N[C@@H](CCC(N)=O)C(=O)O [compound 98]
- IC50 (DRB1*1101 (DR5)): 6.69 µM

Compound: CC[C@H](C)[C@H](NC(=O)[C@H](C)NC(=O)[C@H](CCCCN)NC(=O)[C@@H](N)Cc1c[nH]cn1)C(=O)N[C@@H](CCC(=O)O)C(=O)N[C@@H](CC(C)C)C(=O)N[C@@H](CCC(N)=O)C(=O)N[C@@H](CCSC)C(=O)N[C@@H](C)C(=O)N[C@@H](CC(C)C)C(=O)N[C@@H](CCC(N)=O)C(=O)NCC(=O)N[C@@H](CC(C)C)C(=O)N[C@@H](C)C(=O)N[C@@H](CCC(N)=O)C(=O)O [compound 101]
- IC50 (DRB1*0401 (DR4w4)): 50 nM
- IC50 (DRB4*0101 (DRw53)): 3 nM

Compound: CC[C@H](C)[C@H](N)C(=O)N[C@@H](CCC(=O)O)C(=O)N[C@@H](Cc1ccccc1)C(=O)N[C@H](C(=O)N[C@H](C(=O)N[C@@H](Cc1ccccc1)C(=O)N[C@@H](CC(C)C)C(=O)NCC(=O)N[C@@H](C)C(=O)N[C@@H](CC(C)C)C(=O)N[C@@H](CCCCN)C(=O)N[C@@H](CO)C(=O)N[C@@H](Cc1ccccc1)C(=O)N[C@@H](CC(C)C)C(=O)N[C@@H](CCCCN)C(=O)O)[C@@H](C)O)[C@@H](C)CC [compound 99]
- IC50 (DRB1*0101 (DR1)): 30 nM
- IC50 (DRB1*0301 (DR3)): > 20000 nM
- IC50 (DRB1*0405 (DR4w15)): 3650 nM
- IC50 (DRB1*0701 (DR7)): > 20 µM
- IC50 (DRB1*0901): > 20 µM

Compound: CC(C)C[C@H](NC(=O)[C@H](CCC(N)=O)NC(=O)[C@H](CCC(N)=O)NC(=O)[C@H](CC(C)C)NC(=O)[C@@H](NC(=O)[C@H](CCCNC(=N)N)NC(=O)[C@@H](N)CC(C)C)[C@@H](C)O)C(=O)N[C@@H](Cc1ccccc1)C(=O)N[C@@H](CC(C)C)C(=O)N[C@@H](CO)C(=O)N[C@H](C(=O)N[C@@H](CC(C)C)C(=O)N[C@@H](CO)C(=O)N[C@@H](Cc1ccccc1)C(=O)N[C@H](C(=O)O)C(C)C)[C@@H](C)O [compound 121]
- IC50 (DRB1*1101 (DR5)): 1.67 µM

Compound: CC[C@H](C)[C@H](NC(=O)[C@H](Cc1c[nH]c2ccccc12)NC(=O)[C@H](CCC(=O)O)NC(=O)[C@@H]1CCCN1)C(=O)N[C@@H](CCC(N)=O)C(=O)N[C@@H](CCCNC(=N)N)C(=O)N[C@@H](CCC(N)=O)C(=O)N[C@H](C(=O)N[C@H](C(=O)N[C@@H](CC(C)C)C(=O)N[C@@H](CCC(N)=O)C(=O)N[C@@H](Cc1c[nH]cn1)C(=O)N[C@@H](CO)C(=O)N[C@@H](Cc1ccccc1)C(=O)N[C@@H](CC(N)=O)C(=O)O)C(C)C)[C@@H](C)O [compound 90]
- IC50 (DRB1*0701 (DR7)): > 20 µM

Compound: CC[C@H](C)[C@H](N)C(=O)N[C@@H](CCCNC(=N)N)C(=O)N[C@H](C(=O)N[C@@H](CC(C)C)C(=O)N[C@@H](CCC(=O)O)C(=O)N[C@@H](CC(=O)O)C(=O)N[C@@H](CC(C)C)C(=O)N[C@@H](CC(C)C)C(=O)N[C@@H](CCSC)C(=O)NCC(=O)N[C@H](C(=O)N[C@@H](CC(C)C)C(=O)NCC(=O)N[C@H](C(=O)N[C@H](C(=O)O)C(C)C)[C@@H](C)CC)[C@@H](C)O)[C@@H](C)O [compound 97]
- IC50 (DRB1*0802 (DR8w2)): > 20 µM
- IC50 (DRB1*1101 (DR5)): > 20 µM
- IC50 (DRB5*0101 (DR2w2beta-2)): > 20000 nM
- IC50 (DRB1*0901): > 20 µM
